In patent US7795305B2, “CDDO-compounds and combination therapies thereof” (Board of Regents, The University of Texas System, priority 2000, dated 2010):

What was measured:
[1] = tested on: wt-PPARγ-transfected D9 cells; test: Annexin V / cell number in wt-PPARγ-transfected D9 cells; type: cell-based
Description: Annexin V staining. Cells were washed in phosphate-buffered saline (PBS) and resuspended in 100 μl of binding buffer containing Annexin V (Roche Diagnostic Corporation, Indianapolis, Ind.). Cells were analyzed by flow cytometry after the addition of propidium iodide (PI). Annexin V binds to those cells that express phosphatidylserine on the outer layer of the cell membrane, and PI stains the cellular DNA of those cells with a compromised cell membrane. This allows for live cells (unstained with either fluorochrome) to be discriminated from apoptotic cells (stained only with annexin V) and necrotic cells (stained with both annexin and PI).
(§1) To characterize the correlation between PPARγ and caspase activation, caspase-3 levels in D9 cells transfected with wt-PPARγ were analyzed. Six different single cell-derived clones were treated with 3 μM CDDO or vehicle controls for 5 hrs. Caspase-3 cleavage was analyzed by Western blot. A decrease in pro-caspase-3 with appearance of the cleaved product was readily observed in all clones. The degree of cleavage was higher in PPARγ-transfected than in vector control cells that express endogenous PPARγ. […] These changes correlated with plasma membrane changes: vector control=47.0% annexin V-positive cells; wt-PPARγ-transfected cells=73.3±1.1% annexin V (+), n=6. […] PPARγ-transfected cells were also more sensitive to PPARγ-ligand 15d-PGJ2 (41.00% vs 16.0% annexin (+) cells at 3 μM).
as §1, with “(41.0%” for “(41.00%”
The sensitivity of leukemic cells that overexpress PPARγ to CDDO-induced killing was tested. Vector control (pcDNA) or wt-PPARγ-transfected D9 cells (2 different clones) were treated 0.2 μM of CDDO for 48 hrs. Cell viability was assessed by cell count after Trypan blue exclusion, and apoptosis determined by PS/annexin V/Propidium Iodide (PI) flow cytometry. Leukemic cells transfected with PPARγ expressed 2.8-3.7-fold higher amounts of protein compared with vector controls. […] Importantly, CDDO increased PPARγ expression in both, vector control and transfected cells. […]

[2] = tested on: GAL4-PPARγ; test: Gal4-PPARγ chimeric protein luciferase transactivation; type: cell-based
Description: To determine if bound CDDO transactivates PPARγ, a Gal4-PPARγ chimeric protein was used to drive the expression of luciferase linked to the DNA binding sequence of GAL4 (FIG. 11B) (Wang et al., 2000). […] All known pharmacological PPARγ ligands had anti-proliferative and differentiating effects only when used at higher (3 or 5 μM)concentrations.

[3] = Murine model of angiogenesis, invasion promoted by ALL BM plasma; type: in vivo; conditions: 0.5 μM, n=8
Description: CDDO-Me. The formation of tube-like endothelial structures that are associated with angiogenesis was analyzed using a Matrigel system (Kubota et al., 1988). Capillary-like structure formation of bone marrow endothelium was inhibited by CDDO-Me. […] Furthermore, in a murine model of angiogenesis, angiogenic invasion promoted by ALL BM plasma was abrogated by CDDO-Me at 0.5 μM (n=8). Thus, CDDO-Me also has anti-angiogenic effects.

[4] = tested on: U937/wt; test: Viability of Bcl-2 transfectants; type: cell-based, human; conditions: 0.1 μM
Source text: Cell lines. HL-60, KG-1, U937, and Jurkat cell lines were obtained from the American Type Culture Collection (Rockville, Md.). NB4 cells were kindly provided by Dr. M. Lanotte. HL-60-doxorubicin-resistant cells (HL-60-DOX) were also used. U937/Bcl-2 and its appropriate vector controls (U937/pCEP) were provided by Dr. S. Grant. U937 cells were transfected with WT, S70A, or S70E cDNA containing cytomegalovirus plasmids by electroporation (200 V, 975 μF capacitance) and selected and maintained in the medium plus 500 μg/mL G418 (Gibco BRL, Gaithersburg, Md.)
The effect of CDDO-Me on Bcl-2 phosphorylation was further investigated by performing metabolic labeling studies with ^32P-orthophosphoric acid. […] To further investigate mechanisms of inhibition of Bcl-2 phosphorylation that could may a role in CDDO-Me-induced cell death, the inventors selected U937 cells that were stably transfected with a serine 70→alanine, Bcl-2 mutant (S70A).

[5] = tested on: CML-blast crisis samples; test: Apoptosis and differentiation in CML-blast crisis samples in vitro; type: cell-based, human
Source text: Subjects. Samples of bone marrow or peripheral blood were obtained for in vitro studies from patients with newly diagnosed or recurrent AML with high (>70%) blast count and from patients with myeloid transformation of chronic myeloid leukemia (CML). Informed consent was obtained following institutional guidelines. Mononuclear cells were separated by Ficoll-Hypaque (Sigma Chemical Co) density-gradient centrifugation.
CDDO-Me. In primary AML, CDDO-Me induced apoptotic cell death in a dose-dependent fashion as determined by DNA flow cytometry (subG1): at 1 μM CDDO-Me, apoptosis was induced in 5 of 6 AML samples in vitro, and 5 μM induced apoptosis in 6 of 6 samples. More than 90% apoptotic cells were detected in 4/6 samples following exposure to 5 μM of CDDO-Me (FIG. 21A). At lower concentrations, CDDO-Me induced a dose-dependent increase in the percentage of the apoptotic cells in 4/4 samples tested (FIG. 21B). The paired mean difference between the CDDO-Me 0.1 μM and DMSO control is 26.9%±10.8% (CDDO-Me-DMSO, mean±SEM); and the paired mean difference between the CDDO-Me 0.5 μM and DMSO is 43.2%±5.2%. […] Effects of CDDO-Me were also tested on clonogenic AML cells. […] In contrast, 79±5.6% and 63.4±1.1% CFU-GM generated from normal CD34* cells were detected after 0.1 and 0.5 μM of CDDO-Me treatment (n=3).

## CC1(C)CCC2(C(=O)O)CCC3(C)C(C(=O)C=C4C5(C)C=C(C#N)C(=O)C(C)(C)C5CCC43C)C2C1 (centres unmarked) [CDDO, 2-cyano-3,12-dioxoolen-1,9-dien-28-oic acid]
[1]; 3 μM (CDDO: 5 hrs, n=6)
  annexin V (+) cells: 73.3±1.1%
[1]; 3 μM CDDO
  cell number decreased by: 48.8±12.4%
[1]; all six single cell-derived subclones, 0.2 μM CDDO, 48 hrs
  higher sensitivity compared to vector-control cells: > 50%
[2]
  transactivation of GAL4-PPARγ: transactivates GAL4-PPARγ in a dose-dependent manner

## COC(=O)[C@]12CCC(C)(C)C[C@H]1[C@H]1C(=O)C=C3[C@@]4(C)C=C(C#N)C(=O)C(C)(C)[C@@H]4CC[C@@]3(C)[C@]1(C)CC2 [CDDO-Me]
[3]
  angiogenic invasion promoted by ALL BM plasma: abrogated
[4]
  viable cells: 30%
[5]; 1 μM
  CML-blast crisis samples in which apoptosis was induced: 3 of 4
[5]; 5 μM
  CML-blast crisis samples in which apoptosis was induced: 4 of 4
